From patent publication US9199943B2, “2-(poly-substituted aryl)-6-amino-5-halo-4-pyrimidinecarboxylic acids and their use as herbicides” (Dow AgroSciences, LLC., priority 2006, dated 2015) come the findings set out here.

Data set [1] has as its system CYPDI = Cyperus difformis. In words: Herbicidal activity in transplanted paddy rice, Cyperus difformis. Type of data set: in vivo. The settings on record: 480 h, water-injected paddy, after 20-22 days; for pest or weed control at 70 g/ha: 70 g ai/ha; for pest or weed control at 17.5 g/ha: 17.5 g ai/ha; for pest or weed control at 140 g/ha: 140 g ai/ha; for pest or weed control at 35 g/ha: 35 g ai/ha. The procedure:
Weed seeds or nutlets of the desired test plant species were planted in puddled soil (mud) prepared by mixing a non-sterilized mineral soil (28 percent silt, 18 percent clay, and 54 percent sand, with a pH of about 7.3 to 7.8 and an organic matter content of about 1.0 percent) and water at a ratio of 100 kg of soil to 19 L of water. The prepared mud was dispensed in 250 mL aliquots into 480 mL non-perforated plastic pots with a surface area of 91.6 square centimeters leaving a headspace of 3 centimeters in each pot. Rice seeds were planted in Sun Gro MetroMix® 306 planting mixture, which typically has a pH of 6.0 to 6.8 and an organic matter content of about 30 percent, in plastic plug trays. Seedlings at the second or third leaf stage of growth were transplanted into 650 mL of mud contained in 960 mL non-perforated plastic pots with a surface area of 91.6 square centimeters 4 days prior to herbicide application. The paddy was created by filling the 3 centimeter headspace of the pots with water. When required to ensure good germination and healthy plants, a fungicide treatment and/or other chemical or physical treatment was applied. The plants were grown for 4-14 days in a greenhouse with an approximate 14 hour photoperiod which was maintained at about 29° C. during the day and 26° C. during the night. Nutrients were added as Osmocote (17:6:10, N:P:K+minor nutrients) at 2 g (grams) per cup. Water was added on a regular basis to maintain the paddy flood, and supplemental lighting was provided with overhead metal halide 1000-Watt lamps as necessary. The plants were employed for testing when they reached the second or third true leaf stage. A weighed amount, determined by the highest rate to be tested, of each test compound was placed in a 120 mL glass vial and was dissolved in 20 mL of acetone to obtain concentrated stock solutions. […] The concentrated stock solutions obtained were diluted with 20 mL of an aqueous mixture containing 0.01% Tween 20 (v/v). Application rates of ½×, ¼×, ⅛× and 1/16× of the high rate were obtained by injecting an appropriate amount of the stock solution into the aqueous layer of the paddy. Control plants were treated in the same manner with the solvent blank. The treated plants and control plants were placed in a greenhouse as described above and water was added as needed to maintain a paddy flood. After 20-22 days, the condition of the test plants as compared with that of the untreated plants was determined visually and scored on a scale of 0 to 100 percent where 0 corresponds to no injury and 100 corresponds to complete kill.

The subject of data set [2] is CHEAL = lambsquarter (Chenopodium album). Nature of the data set: General preemergence herbicidal activity, lambsquarter. Particulars: Chenopodium album, pre-emergence, 480 h, pre-emergent, visual score after 20-22 days; for pest or weed control at 140 g/ha: 140 g ai/ha. Type of data set: in vivo. The source says: (§1) Seeds of the desired test plant species were planted in a soil matrix prepared by mixing a loam soil (43 percent silt, 19 percent clay, and 38 percent sand, with a pH of about 8.1 and an organic matter content of about 1.5 percent) and sand in a 70 to 30 ratio. The soil matrix was contained in plastic pots with a surface area of 113 square centimeters. When required to ensure good germination and healthy plants, a fungicide treatment and/or other chemical or physical treatment was applied. A weighed amount, determined by the highest rate to be tested, of each test compound was placed in a 25 mL glass vial and was dissolved in 6 mL of a 97:3 v/v (volume/volume) mixture of acetone and DMSO to obtain concentrated stock solutions. […] The stock solutions obtained were diluted with 18 mL of a 0.1% v/v aqueous solution of Tween® 20 surfactant to obtain spray solutions containing the highest application rate. Additional application rates were obtained by serial dilution of 12 mL of the high rate solution into a solution containing 3 mL of 97:3 v/v mixture of acetone and DMSO and 9 mL of the 0.1% v/v aqueous solution of Tween® 20 surfactant to obtain 1⁄2×, 1⁄4×, 1⁄8× and 1/16× rates of the high rate. Compound requirements are based upon a 12 mL application volume at a rate of 187 L/ha. Formulated compounds were applied to the plant material with an overhead Mandel track sprayer equipped with a […] nozzles calibrated to deliver 187 L/ha over an application area of 0.503 square meters at a spray height of 18 inches (43 cm) above the soil surface. Control plants were sprayed in the same manner with the solvent blank. The treated pots and control pots were placed in a greenhouse maintained with an approximate 15 hour photoperiod and temperatures of about 23-29° C. during the day and 22-28° C. during the night. Nutrients and water were added on a regular basis and supplemental lighting was provided with overhead metal halide 1000-Watt lamps as necessary. The water was added by top-irrigation. After 20-22 days, the condition of the test plants that germinated and grew as compared with that of the untreated plants that emerged and grew was determined visually and scored on a scale of 0 to 100 percent where 0 corresponds to no injury and 100 corresponds to complete kill or no emergence.

In data set [3] the test system is ABUTH = velvetleaf (Abutilon theophrasti). Nature of the data set: General preemergence herbicidal activity, velvetleaf. Type of data set: in vivo. Particulars: Abutilon theophrasti, pre-emergence, 480 h, pre-emergent, visual score after 20-22 days; for pest or weed control at 140 g/ha: 140 g ai/ha.
From the text: as §1

Data set [4] has as its system HELAN = sunflower (Helianthus annuus). Nature of the data set: General preemergence herbicidal activity, sunflower. Type of data set: in vivo. The settings on record: Helianthus annuus, pre-emergence, 480 h, pre-emergent, visual score after 20-22 days; for pest or weed control at 140 g/ha: 140 g ai/ha.
From the text: as §1

With `COC(=O)c1nc(-c2ccc(Cl)c(OC)c2F)nc(N)c1Br` [Compound 13, 6-amino-5-bromo-2-(4-chloro-2-fluoro-3-methoxyphenyl)-pyrimidine-4-carboxylic acid methyl ester], the pest or weed control at 70 g/ha in data set [1] turned out to be 85%.
As for `COC(=O)c1nc(-c2ccc(Cl)c(OC)c2F)nc(N)c1Cl` [Compound 3, 6-amino-5-chloro-2-(4-chloro-2-fluoro-3-methoxyphenyl)-pyrimidine-4-carboxylic acid methyl ester], the pest or weed control at 17.5 g/ha in data set [1] amounted to 99%.
`COC(=O)c1nc(-c2ccc(Cl)c(OCC(F)F)c2F)nc(N)c1Cl` [Compound 10, 6-Amino-5-chloro-2-[4-chloro-3-(2,2-difluoroethoxy)-2-fluorophenyl]-pyrimidine-4-carboxylic acid methyl ester] showed a melting point of 139 to 141 °C. This molecule came in with a pest or weed control at 280 g/ha in data set [2] (280 g ai/ha) of 60%. In data set [3] (280 g ai/ha), this molecule gave a pest or weed control at 280 g/ha of 80%. Also, in data set [4] (280 g ai/ha), the pest or weed control at 280 g/ha came to 0%. In data set [1], this molecule returned a pest or weed control at 140 g/ha of 95%.
Consider `COC(=O)c1nc(-c2ccc(Cl)c(N(C)C)c2F)nc(N)c1Cl` [Compound 8, 6-Amino-5-chloro-2-(4-chloro-3-dimethylamino-2-fluorophenyl)pyrimidine-4-carboxylic acid methyl ester], for which the melting point fell in the range of 143 to 144 °C. In data set [1], the pest or weed control at 35 g/ha was found to be 95%.
On to `COC(=O)c1nc(-c2ccc(Cl)c(C(F)F)c2F)nc(N)c1Cl` [Compound 7, 6-Amino-5-chloro-2-(4-chloro-3-difluoromethyl-2-fluorophenyl)pyrimidine-4-carboxylic acid methyl ester], for which the melting point was in the range of 155 to 157 °C. Further, the pest or weed control at 140 g/ha in data set [2] came to 70%. In data set [3], this molecule gave a pest or weed control at 140 g/ha of 75%. Moreover, the pest or weed control at 140 g/ha in data set [4] was 90%. For the same molecule, the pest or weed control at 140 g/ha in data set [1] was 100%.
In the case of `COC(=O)c1nc(-c2ccc3c(c2F)OCO3)nc(N)c1Cl` [Compound 9, 6-Amino-5-chloro-2-(4-fluorobenzo[1,3]dioxol-5-yl)pyrimidine-4-carboxylic acid methyl ester], the pest or weed control at 35 g/ha in data set [1] turned out to be 100%.
For the molecule `COC(=O)c1nc(-c2c(F)cc(Cl)c(OC)c2F)nc(N)c1Cl` [Compound 2, 6-amino-5-chloro-2-(4-chloro-2,6-difluoro-3-methoxy-phenyl)pyrimidine-4-carboxylic acid methyl ester], the values for the pest or weed control at 140 g/ha in data set [2], in data set [3] and in data set [4] were 90%, 100% and 20%, respectively. The molecule further had a pest or weed control at 70 g/ha in data set [1] of 75%.
Turning to `COC(=O)c1nc(-c2ccc(Cl)c(OC)c2Cl)nc(N)c1Cl` [Compound 6, 6-Amino-5-chloro-2-(2,4-dichloro-3-methoxyphenyl)pyrimidine-4-carboxylic acid methyl ester], the pest or weed control at 140 g/ha in data set [2] was 100%; in data set [3] it was 60%; in data set [4] it was 90%. This molecule also displayed a pest or weed control at 17.5 g/ha in data set [1] of 90%.
The molecule `CCOc1c(Cl)ccc(-c2nc(N)c(Cl)c(C(=O)OC)n2)c1F` [Compound 1, 6-amino-5-chloro-2-(4-chloro-3-ethoxy-2-fluorophenyl)-pyrimidine-4-carboxylic acid methyl ester] yielded a pest or weed control at 17.5 g/ha in data set [1] of 95%.

The pest or weed control is how far the test organism was held down. Low readings indicate weak suppression, high ones strong suppression. In general, melting point refers to the temperature, or range, at which the solid turns liquid.
